Experimental data reported in US20170355959A1, “METHODS FOR MOBILISING POPULATIONS OF STEM CELLS” (Imperial Innovations Limited, priority 2014, published 2017).
Where two headings read alike, the source gives them in different places.

Legend:
[1] = test system: HSPCs; test: Mobilization of HSPCs into peripheral blood (CFU-HPC assay); assay type: in vivo, mice; conditions: for level of HSPC mobilization: 3 day pre-treatment with one agonist alone, beta 3 agonist and CXCR4 antagonist on day 4; for priming of HSPCs for mobilization: 4 day pre-treatment, CB1 and CB2 agonists in combination, even with FAAH inhibitor; for effect on HSPC mobilization induced by 4 day beta 3 adrenergic agonist and CXCR4 antagonist: inhibitor or antagonist given 60 minutes prior to BRL 37344, once daily for 4 days
Description: (§1) Mice were administered the β-adrenergic agonists isoproterenol (10 mg/kg i.p.), clenbuterol (5 mg/kg i.p.) and BRL 37344 (10 mg/kg i.p.), the cannabinoid receptor agonists ACEA (10 mg/kg i.p.) and GP1a (5 mg/kg i.p.), or vehicle either on 4 consecutive days or 2 hours prior to the cull. 1 hour after the last injection, mice were administered the CXCR4 antagonist AMD3100 (5 mg/kg i.p.) or vehicle. 1 hour later their blood was collected via cardiac puncture for enumeration of circulating CFU-HPCs and CFU-Fs. Mice were administered murine G-CSF (100 μg/kg i.p.) or vehicle on 4 consecutive days. On day 5, blood was collected via cardiac puncture for enumeration of circulating HSPCs.
(§2) Harvested peripheral blood or perfusate was red blood cell-lysed and 1×10^5 cells were added to tissue culture-treated petri dishes containing 1 ml of Methocult™ (M3434; StemCell Technologies) to select for CFU-HPCs. Cultures were incubated at 37° C. and quantified on day 12. Similarly, 1×10^6 bone marrow cells harvested by bone marrow flush of the hind limb femur were plated for CFU-HPCs.

[2] = test system: CFU-Fs (MSPCs); test: Mobilization of MSPCs into peripheral blood (CFU-F assay); assay type: in vivo, mice; conditions: for priming of MSCs for mobilization: 4 day pre-treatment, CB1 and CB2 agonists in combination, even with FAAH inhibitor
[3] = test system: HSPCs; conditions: humans; cited from earlier work
[4] = test system: HSPCs; conditions: mice; cited from earlier work
[5] = test system: CFU-Fs (MSCs); test: In situ perfusion of mouse hind limb, CFU-Fs in perfusate; assay type: in vivo, mice
Description: (§3) Mice were administered BRL 37344 (10 mg/kg i.p.) or vehicle on 4 consecutive days. 1 hour after the last injection, the mice were anaesthetized. The femoral vein and artery were exposed and cannulated in situ immediately after the hind limb was isolated by occlusion of the surrounding arteries as previously described (Pitchford et al, 2009; Pitchford et al, 2010). Perfusion buffer was infused via the arterial cannula and removed from the venous cannula using a Minipuls Peristaltic Pump (Anachem). The hind limb was initially infused with AMD3100 (0.1 mM) or vehicle for 10 minutes using an infusion/withdrawal pump (Harvard Instruments) and was further perfused for 50 minutes with perfusion buffer (Pitchford et al, 2010). The perfusate was collected over 60 minutes and then centrifuged and resuspended in DMEM (Gibco) +20% fetal bovine serum for enumeration of CFU-HPCs and CFU-Fs.
Harvested peripheral blood or perfusate was red blood cell-lysed and 1×10^6 cells were added to tissue culture-treated 6-well plates containing 3 ml of Mesencult™ (05502; StemCell Technologies) to select for CFU-Fs. Similarly, 1×10^6 bone marrow cells harvested by bone marrow flush of the hind limb femur were plated for CFU-Fs. Cultures were incubated at 37° C. and media was changed on day 7. Bone marrow-derived CFU-Fs were enumerated on day 13 and blood- and perfusate-derived CFU-Fs were enumerated on day 21. Blood derived-CFU-Fs were further expanded and assessed for mesenchymal lineage markers by flow cytometry and following CD45 depletion (flow cytometry sorting of CD45 negative for mesenchymal trilineage differentiation (Supplemental Experimental Procedures).

[6] = test system: HPCs; test: In situ perfusion of mouse hind limb, CFU-HPCs in perfusate; assay type: in vivo, mice
Description: as §3, §2

[7] = test system: total white blood cells; conditions: CXCR4 antagonist alone
Description: as §1

[8] = test system: MSCs; conditions: G-CSF and/or the CXCR4 antagonist; cited from earlier work
[9] = test system: free fatty acids; test: Free fatty acid assay in blood plasma; assay type: in vivo, mice; conditions: pre-treatment 60 minutes prior to the b3 adrenergic agonist, 4 days
Description: as §1
Free fatty acid content in blood plasma was quantified using a serum/plasma fatty acid detection Kit (Zen Bio) and the assay was performed according to the manufacturers' instructions. Data are expressed as μM concentration of free fatty acids.

[10] = test system: FFAs; conditions: infusion directly into the vasculature of the canine femur; cited from earlier work
[11] = test system: CXCL12; conditions: in vivo; cited from earlier work
[12] = 3 days CB1 and CB2 agonists in combination, beta 3 agonist on the fourth day prior to CXCR4 antagonist
[13] = AMD3100 alone, 5 mg/kg i.p., blood 1 hour later
[14] = vehicle pre-treated mice, hind limb infused with CXCR4 antagonist for 10 min
[15] = four day pretreatment, b3 adrenergic agonist in combination with FAAH inhibitor
[16] = acute treatment (2 h), alone or in combination with acute CXCR4 antagonist
[17] = pre-treated once daily for 4 days, then AMD3100, blood 1 hour later

Molecule: CCCCC/C=C\C/C=C\C/C=C\C/C=C\CCCC(=O)NCCCl [ACEA, Arachidonyl-2-chloroethylamide]
- level of HSPC mobilization [1]: significantly less than that achieved using these agonists in combination
- HSPC mobilization [1, 12]: stem cells were mobilized
- priming of HSPCs for mobilization [1]: not sufficient to prime MSCs or HSPCs for mobilization
- priming of MSCs for mobilization [2]: not sufficient to prime MSCs or HSPCs for mobilization
- CFU-F mobilization ([2]; mouse, in vivo): stem cells were mobilized
- level of CFU-F mobilization ([2]; mouse, in vivo): significantly less than that achieved using these agonists in combination

Molecule: Cc1c(C(=O)NN2CCCCC2)nn(-c2ccc(Cl)cc2Cl)c1-c1ccc(I)cc1 [AM251]
- effect on HSPC mobilization induced by 4 day beta 3 adrenergic agonist and CXCR4 antagonist [1]: significantly suppressed

Molecule: COc1ccc(C(=O)c2c(C)n(CCN3CCOCC3)c3cc(I)ccc23)cc1 [AM630]
- effect on HSPC mobilization induced by 4 day beta 3 adrenergic agonist and CXCR4 antagonist [1]: significantly suppressed
- effect on CFU-F mobilization induced by 4 day beta 3 adrenergic agonist and CXCR4 antagonist ([2]; mouse, in vivo): significantly suppressed

Molecule: c1cc(CN2CCCNCCNCCCNCC2)ccc1CN1CCCNCCNCCCNCC1 [AMD3100]
- mobilization of HSPCs into the blood [1, 13]: stimulated mobilization of HSPCs into the blood
- circulating numbers of HSPCs [3]: stimulates a rapid rise in circulating numbers of HSPCs
- circulating numbers of HSPCs [4]: stimulates a rapid rise in circulating numbers of HSPCs
- MSCs mobilized from the bone marrow [5, 14]: HPCs but not MSCs were mobilized from the bone marrow
- HPCs mobilized from the bone marrow [6, 14]: HPCs but not MSCs were mobilized from the bone marrow
- mobilization of total white blood cells [7]: significantly increased
- CFU-Fs in blood [2, 13]: no colony forming units-fibroblasts (CFU-Fs; a measure of MSCs) were detectable
- mobilisation of MSCs from the bone marrow into the blood [8]: not effective

Molecule: CC(C)(C)NCC(O)c1cc(Cl)c(N)c(Cl)c1 (centres unmarked) [Clenbuterol]
- HSPC mobilization ([1]; once daily for 4 days, alone or in combination with the CXCR4 antagonist): did not stimulate HSPC or MSC mobilization
- MSC mobilization ([2]; mouse, in vivo): did not stimulate HSPC or MSC mobilization

Molecule: Cc1ccc2c(c1)Cc1c(C(=O)NN3CCCCC3)nn(-c3ccc(Cl)cc3Cl)c1-2 [GP1a, N-(Piperidin-1-yl)-1-(2,4-dichlorophenyl)-1,4-dihydro-6-methylindeno[1,2-c]pyrazole-3-carboxamide]
- level of HSPC mobilization [1]: significantly less than that achieved using these agonists in combination
- HSPC mobilization [1, 12]: stem cells were mobilized
- priming of HSPCs for mobilization [1]: not sufficient to prime MSCs or HSPCs for mobilization
- priming of MSCs for mobilization [2]: not sufficient to prime MSCs or HSPCs for mobilization
- CFU-F mobilization ([2]; mouse, in vivo): stem cells were mobilized
- level of CFU-F mobilization ([2]; mouse, in vivo): significantly less than that achieved using these agonists in combination

Molecule: COc1ccc2cc([C@H](C)C(=O)O)ccc2c1 [Naproxen]
- effect on HSPC mobilization induced by 4 day beta 3 adrenergic agonist and CXCR4 antagonist [1]: significant increase in the mobilization of both HSPCs or CFU-Fs

Molecule: CCCCCCCCCCC[C@@H](C[C@@H]1OC(=O)[C@H]1CCCCCC)OC(=O)[C@H](CC(C)C)NC=O [Orlistat]
- effect on HSPC mobilization induced by 4 day beta 3 adrenergic agonist and CXCR4 antagonist [1]: completely abrogated
- effect on the b3 adrenergic agonist induced increase of FFA levels in plasma [9]: attenuated
- effect on CFU-F mobilization induced by 4 day beta 3 adrenergic agonist and CXCR4 antagonist ([2]; inhibitor or antagonist given 60 minutes prior to BRL 37344, once daily for 4 days): completely abrogated

Molecule: NC(=O)c1cccc(-c2cccc(OC(=O)NC3CCCCC3)c2)c1 [URB597]
- effect on HSPC mobilization induced by 4 day beta 3 adrenergic agonist and CXCR4 antagonist [1]: significantly enhanced
- MSC egress from the bone marrow in response to infusion of the CXCR4 antagonist [5, 15]: significantly enhanced both HPC and MSC egress from the bone marrow
- HPC egress from the bone marrow in response to infusion of the CXCR4 antagonist [6, 15]: significantly enhanced both HPC and MSC egress from the bone marrow
- effect on CFU-F mobilization induced by 4 day beta 3 adrenergic agonist and CXCR4 antagonist ([2]; mouse, in vivo): significantly enhanced

Molecule: CC(C)NCC(O)c1ccc(O)c(O)c1 (centres unmarked) [isoproterenol]
- circulating numbers of HSPCs ([1]; 4 day pre-treatment alone): did not change circulating numbers of HSPCs or CFU-Fs
- mobilization of HSPCs [1, 16]: did not enhance the mobilization of HSPCs above AMD3100 alone
- circulating HSPC numbers [1, 17]: significantly elevated over treatment with the CXCR4 antagonist alone
- release of FFAs into the femoral vein [10]: release of FFAs into the femoral vein
- circulating numbers of CFU-Fs ([2]; 4 day pre-treatment alone): did not change circulating numbers of HSPCs or CFU-Fs
- CFU-Fs in the blood [2, 16]: did not result in detectable numbers of CFU-Fs in the blood
- circulating CFU-Fs [2, 17]: CFU-Fs were mobilized

B1: G-CSF: cytokine, granulocyte colony stimulating factor; murine G-CSF (PeproTech) (protein, UniProt P09920 31-208, looked up)
Granulocyte …: VPLVTVSALPPSLPLPRSFLLKSLEQVRKIQASGSVLLEQLCATYKLCHPEELVLLGHSLGIPKASLSGCSSQALQQTQCLSQLHSGLCLYQGLLQALSGISPALAPTLDLLQLDVANFATTIWQQMENLGVAPTVQPTQSAMPAFTSAFQRRAGGVLAISYLQGFLETARLALHHLA
- G-CSF-induced mobilization of haematopoietic progenitor cells ([1]; in the presence or absence of AM251 or AM630, 4 consecutive days): Independent of Cannabinoid Receptor Signalling
- levels of CXCL12 in the bone marrow [11]: reducing levels of CXCL12 in the bone marrow
- effect on β3-AR agonist/AMD3100 mobilisation of MSPCs ([2]; mouse, in vivo, ip): impairs
- mobilisation of MSCs from the bone marrow into the blood [8]: not effective
